“And” between values parts separate entries of the source, which are not always exact repeats. Equal entries are not always repeated. Structures can show the parent of a compound that is named as a salt. Where two headings read alike, the source gives them in different places.
What was measured:
NpsA [1] = format: biochemical, Klebsiella oxytoca
NpsA (wt-NpsA) [2] = target: T1, NpsA (wt-NpsA) (Klebsiella oxytoca, UniProt A0A291NW45); assay: biochemical; conditions: n = 3
NpsA (wt-NpsA) [3] = target: T1, NpsA (wt-NpsA); assay: biochemical; format: binding; conditions: n = 3
[4] = tested on: Nc1ncnc2c1ncn2[C@@H]1O[C@H](COP(=O)(O)OP(=O)(O)OP(=O)(O)O)[C@@H](O)[C@H]1O; assay: purified protein, by the assay type; conditions: pH 8.0
O=C(O)c1cccc(O)c1 = assay: purified protein, by the assay type; conditions: pH 8.0
Nc1c(O)cccc1C(=O)O = assay: purified protein, by the assay type; conditions: pH 8.0
NpsB = format: biochemical, Klebsiella oxytoca; conditions: pH 8
NpsA [5] = format: biochemical, Klebsiella oxytoca; conditions: read-out: appKi
NpsA [6] = format: binding, Klebsiella oxytoca; conditions: pH 6.8
[7] = tested on: K. oxytoca strain MIT 10-5243; format: cell-based, Klebsiella oxytoca; conditions: read-out: IC50 for inhibition of tilivalline production
K. oxytoca = format: cell-based, Klebsiella oxytoca

T1 sequence (A0A291NW45 1-506): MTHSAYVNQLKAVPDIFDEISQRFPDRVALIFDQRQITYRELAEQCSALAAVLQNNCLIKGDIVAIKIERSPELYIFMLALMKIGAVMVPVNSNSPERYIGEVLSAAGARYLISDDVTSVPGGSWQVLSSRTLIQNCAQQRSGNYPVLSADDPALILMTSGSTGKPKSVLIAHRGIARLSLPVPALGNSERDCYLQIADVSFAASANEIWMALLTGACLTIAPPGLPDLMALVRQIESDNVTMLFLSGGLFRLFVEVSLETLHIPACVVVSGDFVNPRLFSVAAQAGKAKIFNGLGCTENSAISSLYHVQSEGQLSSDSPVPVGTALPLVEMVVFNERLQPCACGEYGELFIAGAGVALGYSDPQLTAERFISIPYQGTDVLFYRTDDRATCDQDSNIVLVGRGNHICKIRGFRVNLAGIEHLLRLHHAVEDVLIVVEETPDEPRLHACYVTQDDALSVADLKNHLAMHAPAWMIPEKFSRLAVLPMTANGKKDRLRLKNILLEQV
T1 sequence (A0A291NW67 1-76 partner): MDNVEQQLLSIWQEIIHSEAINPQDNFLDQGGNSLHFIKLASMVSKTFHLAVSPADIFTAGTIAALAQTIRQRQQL

O=C(O)c1cccc(O)c1 [3-Hydroxybenzoic acid]
fold decrease in specificity constant (kcat/KM) (NpsA [1]): 200 fold | kcat (apparent) (NpsA [1]; pH 8): 0.35 ± 0.07 s⁻¹ | Km (NpsA [1]; read-out: KM (apparent), pH 8): 4000 µM

Nc1ccccc1C(=O)O [Anthranilic acid]
Km (NpsA [1]): 854 µM | fold decrease in specificity constant (kcat/KM) (NpsA [1]): 52 fold | kcat (apparent) (NpsA [1]; pH 8): 0.29 ± 0.01 s⁻¹ | Km (NpsA [1]; read-out: KM (apparent), pH 8): 850 µM

Nc1ncnc2c1ncn2[C@@H]1O[C@H](CNS(=O)(=O)NC(=O)c2cccc(O)c2)[C@@H](O)[C@H]1O [compound 8, 3-hydroxybenzoyl-AMS; 5′-[N-(3-Hydroxybenzoyl)sulfamoyl]amino-5′-deoxyadenosine triethylammonium salt]
Ki (NpsA (wt-NpsA) [2]): 230 nM | Kd (NpsA (wt-NpsA) [3]): 112 nM

Nc1c(O)cccc1C(=O)NS(=O)(=O)NC[C@H]1O[C@@H](n2cnc3c(N)ncnc32)[C@H](O)[C@@H]1O [compound 5, 3-hydroxyanthraniloyl-AMS; 5′-[N-(2-Amino-3-hydroxybenzoyl)sulfamoyl]amino-5′-deoxyadenosine triethylammonium salt]
Ki (NpsA (wt-NpsA) [2]): 54 nM | Kd (NpsA (wt-NpsA) [3]): 29.3 nM

NpsA (wt-NpsA) (Klebsiella oxytoca)
Km [4]: (1.5 ± 0.1) × 10^1 uM | kcat [4]: 0.82 ± 0.01 s⁻¹ | kcat/Km [4]: 56000 ± 4000 M⁻¹ s⁻¹ | Km (O=C(O)c1cccc(O)c1): (4.0 ± 0.9) × 10^3 uM | kcat (O=C(O)c1cccc(O)c1): 0.35 ± 0.07 s⁻¹ | kcat/Km (O=C(O)c1cccc(O)c1): 88 ± 26 M⁻¹ s⁻¹ | Km (Nc1c(O)cccc1C(=O)O): (6.3 ± 0.2) × 10^1 uM | kcat (Nc1c(O)cccc1C(=O)O): 0.78 ± 0.01 s⁻¹ | kcat/Km (Nc1c(O)cccc1C(=O)O): 18000 ± 1000 M⁻¹ s⁻¹

O=C(O)[C@@H]1CCCN1 [L-Proline]
kcat (apparent) (NpsB): 0.037 ± 0.002 s⁻¹

Nc1c(O)cccc1C(=O)O [3-Hydroxyanthranilic acid]
kcat (apparent) (NpsA [1]; pH 8): 0.78 ± 0.01 s⁻¹ | Km (NpsA [1]; read-out: KM (apparent), pH 8): 63 µM

Nc1ccccc1C(=O)NS(=O)(=O)NC[C@H]1O[C@@H](n2cnc3c(N)ncnc32)[C@H](O)[C@@H]1O [compound 9, anthraniloyl-AMS; 5′-[N-(2-Aminobenzoyl)sulfamoyl]amino-5′-deoxyadenosine triethylammonium salt]
Ki (NpsA (wt-NpsA) [2]): 1200 nM | Kd (NpsA (wt-NpsA) [3]): 485 nM

Nc1ncnc2c1ncn2[C@@H]1O[C@H](COP(=O)(O)OP(=O)(O)OP(=O)(O)O)[C@@H](O)[C@H]1O [ATP, adenosine triphosphate]
kcat (apparent) (NpsA [1]; pH 8): 0.82 ± 0.01 s⁻¹ | Km (NpsA [1]; read-out: KM (apparent), pH 8): 15 µM | kcat (apparent) (NpsB): 0.056 ± 0.002 s⁻¹ | Km (NpsB; read-out: KM (apparent)): 21 µM

5′-[N-(3-Hydroxybenzoyl)sulfamoyl]amino-5′-deoxyadenosine triethylammonium salt [Compound 8]
Ki (NpsA [5]): 230 nM | Kd (NpsA [6]): 112 nM | IC50 [7]: 29000 nM | growth inhibition of K. oxytoca (K. oxytoca): no observable growth inhibition

5′-[N-(2-Aminobenzoyl)sulfamoyl]amino-5′-deoxyadenosine triethylammonium salt [Compound 9]
Ki (NpsA [5]): 1200 nM | Kd (NpsA [6]): 485 nM

5′-[N-(2-Amino-3-hydroxybenzoyl)sulfamoyl]amino-5′-deoxyadenosine triethylammonium salt [Compound 5]
Ki (NpsA [5]): 54 nM | Kd (NpsA [6]): 29 nM and 29.3 nM | growth inhibition of K. oxytoca (K. oxytoca): does not inhibit growth
